According to PubChem BioAssay (NCI):
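Exposure lasted 48 hours, with cells grown in 96-well plates and compounds tested at five concentrations. GI50 is the concentration that inhibits growth by half. TGI: total growth inhibition.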

Experiments:
Experiment in all cases: growth of human tumour cells (NCI), 48 h
[1] = tested on: NCI/ADR-RES ovarian
[2] = tested on: HCC-2998 colon
[3] = tested on: SF-295 CNS
[4] = tested on: BT-549 breast
[5] = tested on: MCF7 breast
[6] = tested on: PC-3 prostate
[7] = tested on: SNB-75 CNS
[8] = tested on: COLO 205 colon
[9] = tested on: MOLT-4 leukemia
[10] = tested on: U251 CNS
[11] = tested on: SR leukemia
[12] = tested on: KM12 colon
[13] = tested on: SK-MEL-2 melanoma
[14] = tested on: SK-MEL-28 melanoma
[15] = tested on: UACC-62 melanoma
[16] = tested on: HS 578T breast
[17] = tested on: HOP-92 NSCLC
[18] = tested on: NCI-H522 lung
[19] = tested on: SW-620 colon
[20] = tested on: NCI-H226 lung
[21] = tested on: HCT-116 colon
[22] = tested on: SF-539 CNS
[23] = tested on: CAKI-1 renal
[24] = tested on: RXF 393 renal
[25] = tested on: MDA-MB-435
[26] = tested on: ACHN renal
[27] = tested on: DU-145 prostate
[28] = tested on: A549 NSCLC
[29] = tested on: EKVX NSCLC
[30] = tested on: OVCAR-8 ovarian
[31] = tested on: MDA-MB-231 breast
[32] = tested on: SNB-19 CNS
[33] = tested on: OVCAR-4 ovarian
[34] = tested on: SN12C renal
[35] = tested on: CCRF-CEM leukemia
[36] = tested on: SK-OV-3 ovarian
[37] = tested on: M14 melanoma
[38] = tested on: MALME-3M melanoma
[39] = tested on: UACC-257 melanoma
[40] = tested on: T-47D breast
[41] = tested on: SF-268 CNS
[42] = tested on: HL-60(TB) leukemia
[43] = tested on: 786-0 renal
[44] = tested on: IGROV1 ovarian
[45] = tested on: OVCAR-5 ovarian
[46] = tested on: NCI-H460 lung
[47] = tested on: HT29 colon
[48] = tested on: SK-MEL-5 melanoma
[49] = tested on: A498 renal
[50] = tested on: UO-31 renal
[51] = tested on: K-562 leukemia
[52] = tested on: NCI-H23 lung
[53] = tested on: RPMI-8226 leukemia
[54] = tested on: LOX IMVI melanoma
[55] = tested on: HCT-15 colon
[56] = tested on: TK-10 renal
[57] = tested on: HOP-62 NSCLC

In the case of Cc1cc2nc3c4cc(C#N)ccc4n(CCN(C)C)c3nc2cc1C, the GI50 [1] is reported as 637 nM, the TGI [1] is reported as 7080 nM and the GI50 [2] is reported as 1030 nM. For the same compound, the TGI [2] was 2440 nM, the GI50 [3] was 932 nM and the TGI [3] was > 22500 nM. The GI50 [4] was 2400 nM, the GI50 [5] was 1200 nM and the TGI [5] was 6720 nM. The GI50 [6] was 1490 nM, the TGI [6] was > 21100 nM and the GI50 [7] was 951 nM. The TGI [7] was 2670 nM, the GI50 [8] was 456 nM and the TGI [8] was 1630 nM. The GI50 [9] was 429 nM, the TGI [9] was > 32600 nM and the GI50 [10] was 860 nM. It also gave a GI50 [11] of 362 nM, a TGI [11] of 3590 nM and a GI50 [12] of 1690 nM. The TGI [12] was > 29700 nM, the GI50 [13] was 2180 nM and the TGI [13] was 6150 nM. It also gave a GI50 [14] of 2270 nM, a GI50 [15] of 1400 nM and a TGI [15] of 5210 nM. For the same compound, the GI50 [16] was 1590 nM, the TGI [16] was > 21500 nM and the GI50 [17] was 634 nM. It also gave a TGI [17] of 4580 nM, a GI50 [18] of 505 nM and a TGI [18] of 1960 nM. For the same compound, the GI50 [19] was 411 nM, the TGI [19] was 1970 nM and the GI50 [20] was 1230 nM. It also gave a TGI [20] of 8430 nM, a GI50 [21] of 429 nM and a TGI [21] of 1760 nM. It also gave a GI50 [22] of 966 nM, a GI50 [23] of 381 nM and a TGI [23] of 3420 nM. The GI50 [24] was 918 nM, the TGI [24] was 2830 nM and the GI50 [25] was 1010 nM. It also gave a TGI [25] of 3390 nM, a GI50 [26] of 324 nM and a TGI [26] of 1480 nM. For the same compound, the GI50 [27] was 1100 nM, the TGI [27] was > 32700 nM and the GI50 [28] was 666 nM. For the same compound, the TGI [28] was 3020 nM, the GI50 [29] was 1710 nM and the TGI [29] was > 23800 nM. For the same compound, the GI50 [30] was 584 nM, the TGI [30] was 3920 nM and the GI50 [31] was 1060 nM. For the same compound, the TGI [31] was > 20600 nM, the GI50 [32] was 978 nM and the TGI [32] was > 25200 nM. The GI50 [33] was 1650 nM, the TGI [33] was 5730 nM and the GI50 [34] was 770 nM. The TGI [34] was > 20800 nM, the GI50 [35] was 1220 nM and the TGI [35] was > 33800 nM. It also gave a GI50 [36] of 919 nM, a TGI [36] of 9980 nM and a GI50 [37] of 1360 nM. For the same compound, the TGI [37] was 3820 nM, the GI50 [38] was 1380 nM and the TGI [38] was 3600 nM. It also gave a GI50 [39] of 686 nM, a TGI [39] of 2060 nM and a GI50 [40] of 2300 nM. The GI50 [41] was 1620 nM, the TGI [41] was > 20700 nM and the GI50 [42] was 1160 nM. For the same compound, the TGI [42] was 4370 nM, the GI50 [43] was 1340 nM and the TGI [43] was > 20000 nM. The GI50 [44] was 1070 nM, the TGI [44] was 5600 nM and the GI50 [45] was 1450 nM. The TGI [45] was > 22600 nM, the GI50 [46] was 416 nM and the TGI [46] was 2510 nM. The GI50 [47] was 546 nM, the TGI [47] was 6800 nM and the GI50 [48] was 1690 nM. It also gave a TGI [48] of 3510 nM, a GI50 [49] of 1930 nM and a GI50 [50] of 312 nM. The TGI [50] was 2240 nM, the GI50 [51] was 682 nM and the TGI [51] was > 34100 nM. The GI50 [52] was 507 nM, the TGI [52] was 2370 nM and the GI50 [53] was 1100 nM. For the same compound, the TGI [53] was 4610 nM, the GI50 [54] was 601 nM and the TGI [54] was 2800 nM. The GI50 [55] was 1010 nM, the TGI [55] was 6170 nM and the GI50 [56] was 1980 nM. For the same compound, the TGI [56] was > 23200 nM and the GI50 [57] was 755 nM.
